From ChEMBL document CHEMBL5360565, “Discovery of novel arylpiperazine-based DA/5-HT modulators as potential antipsychotic agents - Design, synthesis, structural studies and pharmacological profiling” (Eur J Med Chem, 2023)

Experiment: in vitro
Conditions: PAMPA, pH 7.4

| SMILES | Papp at 5 h [×10⁻⁶ cm/s] |
| --- | --- |
| Cn1c(=O)c2c(ncn2C)n(C)c1=O [CAFFEINE] | 9.13 |
| CCN1CCCC1CNC(=O)c1cc(S(N)(=O)=O)ccc1OC (configuration not stated) [SULPIRIDE] | 0.006 |
